Source: US20210382058A1, “PATIENT SELECTION FOR TREATMENT OF MYC POSITIVE CANCERS WITH INDENOISOQUINOLINES” (Purdue Research Foundation, priority 2020, published 2021)
Where two headings read alike, the source gives them in different places.

Key:
[1] = test system: NCI-60 cancer cell lines; experiment: NCI-60 cancer cell line drug screen (GI50, MGM); format: cell-based, human; conditions: Homo sapiens; for GI50: read-out: Antiproliferative Activities [GI50 (μM)]
Experimental: Cancer cells were incubated with the test compounds at five concentrations ranging from 100 μM to 10 nM for 48 h. […] The approximate average of GI50 values across the entire panel of NCI-60 cancer cell lines for each compound was recorded as the MGM value.

[2] = target: T1, human topoisomerase I (Homo sapiens, UniProt P11387); conditions: relative topoisomerase I inhibition levels, previously determined, six levels (0 - 5, +++++ = 5); cited from earlier work
T1 sequence (P11387 1-765): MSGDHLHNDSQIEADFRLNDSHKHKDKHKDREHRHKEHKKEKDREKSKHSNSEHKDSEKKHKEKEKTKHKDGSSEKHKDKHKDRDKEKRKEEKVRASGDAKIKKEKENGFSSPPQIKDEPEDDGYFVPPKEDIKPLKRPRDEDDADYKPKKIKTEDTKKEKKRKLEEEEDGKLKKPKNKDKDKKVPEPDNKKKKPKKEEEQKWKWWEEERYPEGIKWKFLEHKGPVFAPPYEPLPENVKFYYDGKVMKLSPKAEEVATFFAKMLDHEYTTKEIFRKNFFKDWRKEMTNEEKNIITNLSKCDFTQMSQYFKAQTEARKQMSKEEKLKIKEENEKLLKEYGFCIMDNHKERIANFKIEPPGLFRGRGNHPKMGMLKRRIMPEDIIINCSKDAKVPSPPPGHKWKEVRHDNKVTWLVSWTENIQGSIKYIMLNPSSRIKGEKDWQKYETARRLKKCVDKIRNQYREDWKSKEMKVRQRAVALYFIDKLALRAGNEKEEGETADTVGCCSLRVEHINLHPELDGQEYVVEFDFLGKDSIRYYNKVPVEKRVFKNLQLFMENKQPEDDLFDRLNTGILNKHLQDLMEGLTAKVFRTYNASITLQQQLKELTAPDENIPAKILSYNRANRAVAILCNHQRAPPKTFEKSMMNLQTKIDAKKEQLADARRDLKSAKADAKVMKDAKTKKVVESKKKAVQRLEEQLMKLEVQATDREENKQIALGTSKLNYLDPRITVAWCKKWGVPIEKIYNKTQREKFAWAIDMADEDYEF

Molecule `COc1cc2c(cc1O)-c1c(c3ccc([N+](=O)[O-])cc3c(=O)n1CCCN1CCOCC1)C2=O` [Compound 36] has a GI50 ([1]; 786-0, Renal Cancer, 786-0) of 0.21 µM, a GI50 ([1]; A498, Renal Cancer, A498) of 0.07 µM and a GI50 ([1]; A549, Non-Small Cell Lung Cancer, A549/ATCC) of 0.52 µM. For the same molecule, the GI50 ([1]; ACHN, Renal Cancer, ACHN) was 0.05 µM, the GI50 ([1]; BT-549, Breast Cancer, BT-549) was 0.12 µM and the GI50 ([1]; CAKI-1, Renal Cancer, CAKI-1) was 0.12 µM. For the same molecule, the GI50 ([1]; CCRF-CEM, Leukemia, CCRF-CEM) was 0.05 µM, the GI50 ([1]; COLO 205, Colon Cancer, COLO 205) was 7.76 µM and the GI50 ([1]; DU-145, Prostate Cancer, DU-145) was 0.14 µM. For the same molecule, the GI50 ([1]; HCC 2998, Colon Cancer, HCC-2998) was 1.42 µM, the GI50 ([1]; HCT-15, Colon Cancer, HCT-15) was 1.53 µM and the GI50 ([1]; HCT-116, Colon Cancer, HCT-116) was 0.22 µM. It also gave a GI50 ([1]; HL-60, Leukemia, HL-60(TB)) of 0.08 µM, a GI50 ([1]; HOP-62, Non-Small Cell Lung Cancer, HOP-62) of 0.12 µM and a GI50 ([1]; HOP-92, Non-Small Cell Lung Cancer, HOP-92) of 0.28 µM. It also gave a GI50 ([1]; HT-29, Colon Cancer, HT29) of 1.18 µM, a GI50 ([1]; Hs-578T, Breast Cancer, HS 578T) of 1.97 µM and a GI50 ([1]; IGROV-1, Ovarian Cancer, IGROV1) of 1.52 µM. It also gave a GI50 ([1]; K562, Leukemia, K-562) of 0.09 µM, a GI50 ([1]; KM12, Colon Cancer, KM12) of 1.04 µM and a GI50 ([1]; LOX IMVI, Melanoma, LOX IMVI) of 0.09 µM. It also gave a GI50 ([1]; Leukemia, SR) of 0.03 µM, a GI50 ([1]; MCF7, Breast Cancer, MCF7) of 0.05 µM and a GI50 ([1]; MDA-MB-231, Breast Cancer, MDA-MB-231/ATCC) of 2.06 µM. For the same molecule, the GI50 ([1]; MDA-MB-435, Melanoma, MDA-MB-435) was 0.89 µM, the GI50 ([1]; MDA-MB-468, Breast Cancer, MDA-MB-468) was 0.14 µM and the GI50 ([1]; MOLT-4, Leukemia, MOLT-4) was 0.03 µM. It also gave a GI50 ([1]; Malme-3M, Melanoma, MALME-3M) of 1.16 µM, a GI50 ([1]; Melanoma, M14) of 0.08 µM and a GI50 ([1]; NCI-H23, Non-Small Cell Lung Cancer, NCI-H23) of 0.17 µM. It also gave a GI50 ([1]; NCI-H226, Non-Small Cell Lung Cancer, NCI-H226) of 0.45 µM, a GI50 ([1]; NCI-H322M, Non-Small Cell Lung Cancer, NCI-H322M) of 0.66 µM and a GI50 ([1]; NCI-H460, Non-Small Cell Lung Cancer, NCI-H460) of 0.03 µM. It also gave a GI50 ([1]; NCI-H522, Non-Small Cell Lung Cancer, NCI-H522) of 0.05 µM, a GI50 ([1]; OVCAR-3, Ovarian Cancer, OVCAR-3) of 0.57 µM and a GI50 ([1]; OVCAR-4, Ovarian Cancer, OVCAR-4) of 1.29 µM. It also gave a GI50 ([1]; OVCAR-5, Ovarian Cancer, OVCAR-5) of 3.6 µM, a GI50 ([1]; OVCAR-8, Ovarian Cancer, OVCAR-8) of 0.45 µM and a GI50 ([1]; Ovarian Cancer, NCl/ADR-RES) of 0.28 µM. The GI50 ([1]; Prostate Cancer, PC-3) was 0.67 µM, the GI50 ([1]; RPMI-8226, Leukemia, RPMI-8226) was 0.12 µM and the GI50 ([1]; RXF 393, Renal Cancer, RXF 393) was 0.46 µM. The GI50 ([1]; Renal Cancer, U0-31) was 0.07 µM, the GI50 ([1]; SF-268, CNS Cancer, SF-268) was 0.04 µM and the GI50 ([1]; SF-295, CNS Cancer, SF-295) was 0.18 µM. The GI50 ([1]; SF-539, CNS Cancer, SF-539) was 0.27 µM, the GI50 ([1]; SK-MEL-2, Melanoma, SK-MEL-2) was 9.44 µM and the GI50 ([1]; SK-MEL-5, Melanoma, SK-MEL-5) was 0.22 µM. For the same molecule, the GI50 ([1]; SK-MEL-28, Melanoma, SK-MEL-28) was 1.37 µM, the GI50 ([1]; SK-OV-3, Ovarian Cancer, SK-OV-3) was 0.24 µM and the GI50 ([1]; SN12C, Renal Cancer, SN12C) was 0.2 µM. The GI50 ([1]; SNB-19, CNS Cancer, SNB-19) was 0.39 µM, the GI50 ([1]; SNB-75, CNS Cancer, SNB-75) was 0.21 µM and the GI50 ([1]; SW-620, Colon Cancer, SW-620) was 0.08 µM. It also gave a GI50 ([1]; T47D, Breast Cancer, T-47D) of 0.56 µM, a GI50 ([1]; TK-10, Renal Cancer, TK-10) of 2.12 µM and a GI50 ([1]; U-251, CNS Cancer, U251) of 0.12 µM. The GI50 ([1]; UACC-62, Melanoma, UACC-62) was 0.05 µM, the GI50 ([1]; UACC-257, Melanoma, UACC-257) was 0.48 µM and the mean GI50 across NCI-60 panel (MGM) ([1]; average of GI50 values across the entire panel of NCI-60 cancer cell lines) was 280 nM. The “Top1 Inhibiton” value [2] was “++ (medium inhibition, ++, MYC expression inhibited at 2.0 μM, or no clear dose-dependent MYC inhibition)”.
